According to patent US20210379151A1 (ACADEMIA SINICA, priority 2018, published 2021):
Counter-ions that a name gives are not always drawn. Like-named read-outs stand apart in the source and are kept apart here.

Experiments:
BBB [1] = experiment: HPLC quantification of TMZ in brain; format: in vivo; conditions: mice
Method: Approximately 100 mg tissue was homogenised in acidified ammonium acetate (200 μl, 10 mM pH 3.5), zinc sulphate (200 μl, 100 mM) and methanol (400 μl), followed by centrifugation at 10,000×g for 30 minutes at 4° C. Supernatant was taken for HPLC analysis. Separation was carried out with a Water e2695 separation module using 80:20 ratio of acetic acid (0.1% v/v) to methanol at a flow rate of 0.8 ml/min in an Atlantis T3 3 μm HPLC column at 35° C. Detection was performed using a Waters 2489 UV/vis detector at 316 nm. Theophylline was used as an internal standard, measured at 275 nm, and results calculated as the peak ratio of TMZ to theophylline.

brain blood vessels = test system: brain blood vessels
Method: Mice were anaesthetised and perfused with PBS followed by 100 ml 4% PFA in […] phosphate buffer, pH 7.4. The brain was removed and post-fixed in 4% PFA (overnight, 4° C.) and washed in PBS. Coronal brain sections (100 μm thick) were cut on the same day with a cryomicrotome and processed free floating. Sections were immersed in 4% PFA, 2.5% glutaraldehye in PBS (overnight, 4 ° C.), washed with PBS for 5 minutes for 3 times. The specimens were immersed in 1% osmium tetroxide for 45 minutes, dehydrated and embedded with Spurr's low viscosity resin. The sample was then trimmed and sectioned using a Leica EM UC6 ultramicrotome. The ultrathin sections were then double stained with uranyl acetate and lead citrate. Images were acquired using Jeol JEM 1200EX TEM with an acceleration voltage of 80 KV.

Claudin-5 = conditions: after VEGF administration
BBB [2] = conditions: mice
Method: For mice, a Pharmascan 7T 16-cm bore horizontal system was operated by a technician. […] Pre-contrast T1-weighted spin echo images were taken (repetition time (TR)=400 ms, echo time (TE)=10.8 ms, field of view (FOV)=2×2 cm, number of excitations (NEX)=8, slice thickness 0.8 mm). […] Post-contrast T1-weighted images were acquired one minute after contrast agent injection. The SNR was calculated by dividing the signal of a ROI (mean pixel intensity) by the standard deviation of the background noise. All image acquisition, SNR measurement and tumour volume measurement was performed by two MRI operating technicians, who were blinded to the study groups.

BBB [3] = conditions: mice; remark: listed apart in the source
Method: After 30 minutes circulation, 50 ml phosphate buffered saline (PBS) was perfused through the abdominal aorta. Organs were removed, cut into multiple smaller pieces, rinsed, dried, weighed, homogenised in 500 μl formamide, heated at 60° C. overnight and centrifuged at 21,000×g for 15 minutes. Supernatant absorbance was measured at 620 nm with background correction at 740 nm, and unknowns quantified by standard curve. […] Radu et al., J. Vis. Exp., No. 73, e50062 (2013).
Concentrations from multiple pieces of the same organ were averaged. For imaging of Evans blue extravasation, a method from del Valle and colleagues was adapted. del Valle et al., J. Neurosci. Methods, 174 (1), 42-49 (2008). Mice were intracardially perfused with 50 ml PBS followed by 50 ml of Evans blue (1% w/v) in paraformaldehyde (4% w/v). Cryolesion injury, to induce a local area of BBB damage, was used as a positive control. The brain was embedded in optimal cutting temperature compound (OCT) and cryosectioned into 20 μm thick sections for analysis.

claudin 5 = test system: claudin 5
Source text: (§1) Brain tumours from mice which died between day 60 to day 70 were selected for immunofluorescence staining. […] Primary antibodies and dilutions used were anti-Ki67 (1:500 GeneTex GTX16667), Isolectin IB4-AlexaFluor 647, anti-GFAP (1:500 AbCam ab68428), anti-Iba1 (1:1000 Wako 019-19741), anti-p-glycoprotein (1:100 AbCam ab170904), anti-pdgfrβ (1:100, ab32570 Abcam), anti-claudin-5 (1:50 34-1600 Thermo Fisher Scientific), anti-CD31 (1:100 550274, BD Pharmingen). Samples were fixed in 4% w/v paraformaldehyde (PFA) pH 6.8 overnight, embedded in paraffin and sectioned. Slides were de-waxed with xylene, rehydrated through graded alcohols to water, then subjected to antigen retrieval, permeabilisation and blocking in accordance with the manufacturers' instructions. Primary antibody was applied overnight at 4° C. diluted in blocking buffer, apart from isolectin, which was applied for one hour at room temperature. Slides were washed 3× with PBS, before the second primary antibody was added and left overnight at 4° C. Secondary antibodies used were goat anti-rabbit IgG-AlexaFluor 568 (Invitrogen A-11011) and goat anti-rat IgG-AlexaFluor 488 (Invitrogen A-11006), applied for one hour at room temperature. At least three separate sections were examined, and at least three images were captured per section. For frozen sections, samples were perfusion fixed then submerged in 4% paraformaldehyde (PFA), cryoprotected in 30% w/v sucrose solution, then frozen in OCT, sectioned and stained as above, continuing on from blocking. H&E staining (Mayers) followed standard lab protocols. Images were captured using a Zeiss AxioScop microscope with AxioFluor objective lenses and AxioVision software, or a Model-Zeiss LSM 700 Stage confocal microscope.
(§2) GraphPad Prism 7.0b (Mac) was used for all statistical analysis and graph generation. For before-after analyses, paired t-test was used, and for grouped analyses one or two-way ANOVA (analysis of variance) with Tukey's post-test to correct for multiple comparisons were used. For tumour survival analyses, deaths were recorded and used to generate Kaplan-Meier survival curves which were compared using Mantel-Cox log rank tests. IVIS images of tumour luminescence and nanoparticle fluorescence were quantified using Living Image 4.0 software for Mac. MRI DICOM images were sorted in MicroDicom (Windows) and SNR calculation was performed in FIJI/ImageJ (Mac) using the measure tool. For heatmap generation, voxels within the animal were compared to the average of a 64*64 voxel region in the corner of the frame and the difference was scaled from 0 to 100, using Python. Adjustments to immunofluorescence image brightness and contrast were made to improve visual clarity and were applied equally to all images within a series. For colocalisation analysis, the raw images were analysed in Zeiss ZEN software. The threshold for no colocalisation was established using the DAPI/CD31 channels, and that threshold was then applied to the other channels. Pericyte alignment analysis was carried out using the freehand line selection tool in ImageJ. Figures were assembled in Affinity Designer (Mac).

[4] = test system: pericyte coverage of blood vessels
Source text: as §1, §2

BBB [5] = conditions: pigs, VEGF vs control
Source text: One minute later, a series of three post-contrast images were taken at the same settings. The two pre-contrast images were averaged, and the post contrast image with the highest SNR from each animal was selected for analysis.

[6] = test system: key genes related to BBB integrity
Method: Samples of mouse cerebral cortex weighing approximately 50 mg were homogenised in Trizol, and total RNA extracted via the manufacturer's protocol, then quantified by Nanodrop. Samples were reverse transcribed to cDNA using a SuperScript III Reverse-Transcriptase Kit (Life Technology). OmicsGreen qPCR SYBR Green master mix (Omics Bio, Taiwan) was used to monitor amplification using an Applied Biosystems 7500 Real-Time PCR system. GAPDH was used an internal control.

astrocytes = conditions: between treatment groups
Source text: as §1, with “For frozen sections, samples were perfusion fixed then submerged in 4% paraformaldehyde (PFA), cryoprotected in 30% w/v sucrose solution, then frozen in OCT, sectioned and stained as above, continuing on from blocking. H&E staining (Mayers) followed standard lab protocols. Images were captured using a Zeiss AxioScop microscope with AxioFluor objective lenses and AxioVision software, or a Model-Zeiss LSM 700 Stage confocal microscope.” left out

P-glycoprotein = conditions: all time points after VEGF
Source text: as §1, with “For frozen sections, samples were perfusion fixed then submerged in 4% paraformaldehyde (PFA), cryoprotected in 30% w/v sucrose solution, then frozen in OCT, sectioned and stained as above, continuing on from blocking. H&E staining (Mayers) followed standard lab protocols. Images were captured using a Zeiss AxioScop microscope with AxioFluor objective lenses and AxioVision software, or a Model-Zeiss LSM 700 Stage confocal microscope.” left out

BBB [7] = conditions: antibody 45 minutes following VEGF; preliminary evidence
Method: The antibody was allowed to circulate for 2 hours, then mice were perfused with 50 mL saline followed by 50 mL paraformaldehyde (4% w/v). The brain was removed, kept in 4% PFA overnight, then processed for frozen sections. As a positive control, 5 μl of antibody was injected directly into the brain prior to perfusion. Frozen sections were then stained using secondary antibody conjugated to Alexa 488. As a negative control, brain sections from an untreated animal were used. As a second positive control, a brain section from an untreated animal was stained with anti-nrCAM using conventional lab techniques (1hr room temperature). All images, aside from the stained positive control, were taken at fixed exposure lengths. The intensity of the green channel was quantified in ImageJ.

[8] = test system: DBTRG-05MG human glioblastoma cell line; experiment: MTT assay cell viability; format: cell-based; conditions: VEGF up to 100 ng/ml
Method: DBTRG-05MG human glioblastoma cells were used in this study. DBTRG-05MG cells were routinely cultured at 37° C. in RPMI 1640 media supplemented with 10% FBS, 1 mM sodium pyruvate and 1% penicillin/streptomycin. MTT assay was carried out in accordance with the manufacturer protocol. For GBM tumour generation, 300,000 live DBTRG-05MG cells, suspended in 6 μl sterile saline, were administered to 6 week old BALB/c NU mice by stereotactic injection, […] The location was 2 mm posterior to the bregma, 1.5 mm laterally in the right cerebral hemisphere, and 2.5 mm deep from the dura, thus delivering the cells into the thalamus. Baumann et al., J. Vis. Exp., No. 67, 3-6 (2012). Bone wax was applied to the skull and the skin was closed with sutures. The success rate of xenograft tumour formation was approximately 90%. Animal deaths were recorded when the animal succumbed from tumour progression, or upon sacrifice if they met pre-determined criteria including severe cachexia (loss of >25% starting body weight), inability to feed, and lack of response to toe-pinch stimulus. Gholamin et al., Cureus, 4, 1-14 (2013).

BBB [9] = experiment: Doxorubicin biodistribution (HPLC)
Method: Organs were removed, dried, weighed, cut into multiple smaller pieces (approximately 100 mg tissue or 100 μl plasma) then thoroughly homogenised with 1 ml lysis buffer (0.25 M sucrose, 5 mM Tris-HCl, 1 mM MgSO4, 1 mM CaCl2, pH 6.7). 200 μl homogenate was then mixed with 1 ml acidified alcohol (70% ethanol, 0.3 N HCl), left overnight at −20° C., then centrifuged at 10,000×g for 30 minutes at 4° C. Supernatant was taken for HPLC analysis. Separation was via a Waters e2695 separation module, mobile phase 35% 10 mM KH2PO4, 65% methanol, flow rate 1 ml/min in an X-Bridge 5 μm column at 40° C. Detection used a Waters e2475 module (ex 480, em 600 nm).
Aryal et al., J. Control. Release, 204, 60-69 (2015); Kovacs et al., 2014; and Wohlfart et al., J Control Release, 154 (1), 103-107 (2011). […] The drug was allowed to circulate for two hours before the animal was perfused with saline. Doxorubicin was then extracted from the vital organs and quantified by HPLC (FIG. 8c). […] FIG. 2b.

[10] = GBM tumour region, VEGF pre-treatment
[11] = mouse brain 45 minutes or 4 hours following VEGF

With `Cn1nnc2c(C(N)=O)ncn2c1=O` [TMZ, Temozolomide] the “brain concentration of TMZ after VEGF pre-treatment” value (BBB [1]; TMZ 20 mg/kg) was “did not further enhance” and the “TMZ concentration in the brain after VEGF pre-treatment” value (BBB [1]; VEGF or 10-fold higher VEGF) was “does not significantly increase”.
In the case of VEGF, the “morphology of brain blood vessels (TEM)” value (brain blood vessels; 15 minutes following VEGF injection) is reported as “slightly dilated and lacking adjacent pericytes”, the “morphology of brain blood vessels (TEM)” value (brain blood vessels; 45 minutes following VEGF) is reported as “no longer dilated” and the “morphology of brain blood vessels (TEM)” value (brain blood vessels; four hours following VEGF) is reported as “both vessels and pericytes appeared normal”. The “Claudin-5 protein expression (Western blot)” value (Claudin-5) was “trend towards reduced protein expression”, the “increase in average SNR of the cortex, post- vs pre-contrast” value (BBB [2]; Gd given 45 minutes following VEGF) was 16% and the “SNR enhancement of the cortex, post- vs pre-contrast” value (BBB [2]; Gd given 4 hours after VEGF) was “less than 5%”. The “signal enhancement of area surrounding central cerebral sinus” value (BBB [2]; VEGF vs control groups) was “no significant difference between the groups”, the “Evans blue uptake in kidney” value (BBB [3]; 45 minutes after VEGF) was “increase” and the “concentration of Evans blue in brain tissue compared to control-treated animals” value (BBB [3]; Evans blue 45 minutes after VEGF, 30 minutes circulation) was 4.85 fold. The “concentration of Evans blue in brain tissue compared to control” value (BBB [3]; Evans blue 4 hours following VEGF) was “no increase was detected”, the “colocalisation of claudin 5 and CD31” value (claudin 5; [10]) was 48.5% and the “colocalisation of claudin 5 and CD31” value (claudin 5; healthy brain, 45 minutes following VEGF) was 55.8%. For the same compound, the “colocalisation of claudin 5 and CD31” value (claudin 5; healthy brain, 4 hours following VEGF) was 42.7%, the “pericyte coverage of blood vessels” value [4, 10] was 28.9% and the “pericyte coverage of blood vessels” value ([4]; healthy brain, 15 minutes after VEGF) was 57.6%. The “pericyte coverage of blood vessels” value ([4]; healthy brain, 45 minutes after VEGF) was 86.2%, the “pericyte coverage of blood vessels” value ([4]; healthy brain, 4 hours after VEGF) was 83.0% and the “SNR enhancement of the central cerebral sinus” value (BBB [5]) was “no significant difference”. The “p-glycoprotein gene expression (Abcb1a)” value ([6]; following VEGF at the given dose) was “No change”, the “expression of BBB transporters Slc2a1 (GLUT-1) and Slc6a8 (CRT)” value [6, 11] was “increase” and the “expression of tight junction components Tjp2 (ZO-2) and Cldn5 (Claudin 5)” value [6, 11] was “decrease”. The “astrocyte morphology (GFAP)” value (astrocytes) was “no obvious change”, the P-glycoprotein staining (P-glycoprotein) was “appeared uniformly on the membrane of blood vessels at all time points” and the “passage of systemically injected IgG antibody into the brain” value (BBB [7]) was “allows the passage of systemically injected IgG antibody into the brain”. The “effect on DBTRG-05MG cell viability” value [8] was “did not affect”.
With `COc1cccc2c1C(=O)c1c(O)c3c(c(O)c1C2=O)C[C@@](O)(C(=O)CO)C[C@@H]3O[C@H]1C[C@H](N)[C@H](O)[C@H](C)O1` [Doxorubicin, Doxorubicin Hydrochloride] the “doxorubicin concentration in brain after VEGF pre-treatment vs. control” value (BBB [9]; 8 mg/kg 45 minutes after VEGF, mice) was “statistically significant increase” and the “systemic Doxorubicin entering the brain” value (BBB [9]; healthy control mice, 8 mg/kg, two hours circulation) was “less than 0.1%”.
